Measurements from ChEMBL document CHEMBL5030539, “Potent and Selective Inhibitors of the Epidermal Growth Factor Receptor to Overcome C797S-Mediated Resistance” (J Med Chem, 2021).
Converted amounts (≈) assume the structure as drawn. The source made the active and inactive calls. The rule behind the calls is not given here.

Experiments:
Homo sapiens = species: Homo sapiens; assay: Inhibition of EGFR Ex19del/T790M/C797S triple mutant (unknown origin) assessed as enzyme residence time measured by -biacore direct binding assay
[1] = Inhibition of EGFR Ex19del/T790M/C797S triple mutant (unknown origin) expressed in human NCI-H1975 cells assessed as protein phosphorylation measured after 2 hrs by ELISA; type: cell-based; conditions: NCI-H1975, 2 h
[2] = Inhibition of EGFR Ex19del/T790M/C797S triple mutant (unknown origin) incubated for 15 min measured by -CisBio HTRF KinEASE TK; design: species or system Homo sapiens
[3] = Intrinsic clearance in human liver microsomes; type: ADME, Microsome; conditions: read-out: CLH
[4] = target: Epidermal growth factor receptor (Homo sapiens, UniProt P00533); assay: Inhibition of Wild type EGFR (unknown origin)
Epidermal growth factor receptor (Homo sapiens, UniProt P00533), sequence (P00533 whole entry): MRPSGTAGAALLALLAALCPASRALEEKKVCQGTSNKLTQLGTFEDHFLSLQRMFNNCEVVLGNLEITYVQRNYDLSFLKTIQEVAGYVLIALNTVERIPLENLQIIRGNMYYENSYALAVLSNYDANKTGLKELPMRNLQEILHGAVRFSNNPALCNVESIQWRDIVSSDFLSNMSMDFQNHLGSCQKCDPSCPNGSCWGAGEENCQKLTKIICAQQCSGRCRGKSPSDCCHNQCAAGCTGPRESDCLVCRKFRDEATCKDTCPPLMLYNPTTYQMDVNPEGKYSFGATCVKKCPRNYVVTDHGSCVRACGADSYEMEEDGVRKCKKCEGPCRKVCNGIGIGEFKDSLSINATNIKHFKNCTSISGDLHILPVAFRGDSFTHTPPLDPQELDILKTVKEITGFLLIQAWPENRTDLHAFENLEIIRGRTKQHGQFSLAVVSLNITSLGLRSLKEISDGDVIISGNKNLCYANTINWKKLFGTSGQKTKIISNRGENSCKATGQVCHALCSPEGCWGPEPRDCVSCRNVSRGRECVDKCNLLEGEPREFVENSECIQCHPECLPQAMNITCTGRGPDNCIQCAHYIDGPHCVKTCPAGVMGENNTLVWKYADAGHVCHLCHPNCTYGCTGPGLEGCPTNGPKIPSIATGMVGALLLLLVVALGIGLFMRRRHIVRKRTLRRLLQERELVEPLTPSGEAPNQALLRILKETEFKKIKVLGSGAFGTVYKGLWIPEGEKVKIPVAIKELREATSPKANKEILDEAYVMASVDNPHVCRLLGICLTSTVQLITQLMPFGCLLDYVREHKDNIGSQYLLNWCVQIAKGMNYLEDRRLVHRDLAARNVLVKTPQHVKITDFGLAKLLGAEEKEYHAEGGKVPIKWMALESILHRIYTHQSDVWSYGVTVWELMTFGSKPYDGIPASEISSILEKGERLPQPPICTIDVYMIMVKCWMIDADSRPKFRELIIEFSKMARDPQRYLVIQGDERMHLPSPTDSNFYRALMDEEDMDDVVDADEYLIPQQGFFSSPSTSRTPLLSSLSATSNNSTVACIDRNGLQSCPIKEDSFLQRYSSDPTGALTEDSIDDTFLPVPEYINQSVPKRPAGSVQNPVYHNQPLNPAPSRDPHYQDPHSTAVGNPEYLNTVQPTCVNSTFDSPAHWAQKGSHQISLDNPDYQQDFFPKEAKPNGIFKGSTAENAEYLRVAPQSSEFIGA

[5] = Intrinsic clearance in rat hepatocyte measured per 10^6 cells; type: ADME, tissue-based; conditions: hepatocytes
[6] = Intrinsic permeability of compound across apical to basolateral side in human Caco-2 cells; type: ADME, cell-based; conditions: read-out: permeability
[7] = Plasma protein binding in human plasma assessed as unbound fraction; type: ADME, cell-free
[8] = Lipophilicity, log D of the compound at pH 7.4; type: physicochemical; conditions: buffer
[9] = Aqueous solubility of the compound at pH 7.4; type: physicochemical; conditions: buffer
[10] = Inhibition of wild type EFGR expressed in human LoVo cell line assessed as inhibition of EGF-stimulated EGFR phosphorylation potency measured after 2 hrs by HRTF assay; type: functional
[11] = Dissociation constant, pKa of compound; type: physicochemical
[12] = Inhibition of EGFR Exon19Del/C797S double mutant (unknown origin) by biochemical assay; design: species or system Homo sapiens
[13] = Inhibition of EFGR Ex19del (unknown origin) expressed in human PC-9 cells assessed as inhibition of EGF-induced phosphorylation measured after 2 hrs by ELISA; type: cell-based; conditions: PC-9, 2 h
[14] = Inhibition of EFGR Ex19del/T790M/C797S triple mutant (unknown origin) expressed in human PC-9-VanR cells assessed as inhibition of EGF-induced phosphorylation measured after 2 hrs by ELISA; type: cell-based; conditions: PC-9, 2 h
PC-9 [15] = assay: In vivo inhibition of EGFR in human PC-9-VanR cells harboring EGFR Ex19del/T790M/C797S triple mutant xenografted in NSG mouse model assessed as inhibition of Akt phosphorylation in tumor at 50 mg/kg, sc bid for 21 days by immunoblot analysis; type: functional, organism-based; conditions: time 21.0 day
[16] = target: Epidermal growth factor receptor (Homo sapiens, UniProt P00533, L858R/T790M)
Epidermal growth factor receptor (Homo sapiens, UniProt P00533, L858R/T790M), sequence (P00533 25-1210 T790M/L858R limits assumed): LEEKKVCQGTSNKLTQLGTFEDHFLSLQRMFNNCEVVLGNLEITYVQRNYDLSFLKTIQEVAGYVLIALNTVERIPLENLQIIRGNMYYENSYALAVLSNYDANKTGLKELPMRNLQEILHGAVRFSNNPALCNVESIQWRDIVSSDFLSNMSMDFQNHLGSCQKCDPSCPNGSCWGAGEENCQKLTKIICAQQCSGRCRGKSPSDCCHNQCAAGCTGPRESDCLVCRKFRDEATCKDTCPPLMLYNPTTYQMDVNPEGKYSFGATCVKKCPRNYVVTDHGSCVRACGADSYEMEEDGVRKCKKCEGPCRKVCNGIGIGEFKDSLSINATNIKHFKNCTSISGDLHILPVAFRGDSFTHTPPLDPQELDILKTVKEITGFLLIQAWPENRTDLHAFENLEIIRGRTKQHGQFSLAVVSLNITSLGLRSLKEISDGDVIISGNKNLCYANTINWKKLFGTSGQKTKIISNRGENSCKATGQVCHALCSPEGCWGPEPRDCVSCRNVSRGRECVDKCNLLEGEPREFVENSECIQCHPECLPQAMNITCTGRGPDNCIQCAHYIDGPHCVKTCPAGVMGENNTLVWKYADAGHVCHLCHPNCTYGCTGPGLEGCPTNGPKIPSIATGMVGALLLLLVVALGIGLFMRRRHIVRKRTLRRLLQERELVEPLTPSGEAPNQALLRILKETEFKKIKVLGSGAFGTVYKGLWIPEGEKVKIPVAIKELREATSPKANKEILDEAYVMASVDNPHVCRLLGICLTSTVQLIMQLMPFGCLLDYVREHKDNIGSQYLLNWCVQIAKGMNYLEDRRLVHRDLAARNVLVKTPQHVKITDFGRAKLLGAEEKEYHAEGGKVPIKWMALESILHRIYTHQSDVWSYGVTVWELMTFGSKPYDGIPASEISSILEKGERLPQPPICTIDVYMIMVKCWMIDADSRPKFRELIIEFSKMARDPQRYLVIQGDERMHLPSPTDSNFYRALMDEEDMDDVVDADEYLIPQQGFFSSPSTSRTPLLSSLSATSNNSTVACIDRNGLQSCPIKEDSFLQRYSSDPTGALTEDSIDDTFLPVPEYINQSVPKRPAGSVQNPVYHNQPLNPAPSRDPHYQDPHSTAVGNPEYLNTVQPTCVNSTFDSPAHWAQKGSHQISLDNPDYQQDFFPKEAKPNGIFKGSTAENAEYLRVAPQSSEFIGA

PC-9 [17] = assay: In vivo inhibition of EGFR in human PC-9-VanR cells harboring EGFR Ex19del/T790M/C797S triple mutant xenografted in NSG mouse model assessed as inhibition of EGFR phosphorylation in tumor at 50 mg/kg, sc bid for 21 days by immunoblot analysis; type: functional, organism-based; conditions: time 21.0 day
PC-9 [18] = assay: In vivo inhibition of EGFR in human PC-9-VanR cells harboring EGFR Ex19del/T790M/C797S triple mutant xenografted in NSG mouse model assessed as inhibition of ERK phosphorylation in tumor at 50 mg/kg, sc bid for 21 days by immunoblot analysis; type: functional, organism-based; conditions: time 21.0 day
PC-9 [19] = assay: Antitumour activity against human PC-9-VanR cells harboring EGFR Ex19del/T790M/C797S triple mutant xenografted in NSG mouse model assessed as tumour growth inhibition at 50 mg/kg, sc bid for 21 days; type: functional; conditions: PC-9, sc, 504 h, time 21 day, read-out: TGI
[20] = Toxicity in mouse NSG assessed as change in body weight at 50 mg/kg, sc bid for 14 to 21 days; type: organism-based; conditions: in vivo, time 14-21 day
NCI-H1975 = assay: Antitumour activity against human NCI-H1975 cells harboring EGFR L858R/T790M double mutant xenografted in NSG mouse model assessed as tumour growth inhibition at 50 mg/kg, sc bid for 14 days relative to control; type: functional; conditions: 336 h, time 14 day, read-out: TGI
PC-9 [21] = assay: In vivo inhibition of EGFR in human PC-9-VanR cells harboring EGFR Ex19del/T790M/C797S triple mutant xenografted in NSG mouse model assessed as inhibition of S6 phosphorylation in tumor at 50 mg/kg, sc bid for 21 days by immunoblot analysis; type: functional, organism-based; conditions: time 21.0 day

Row | SMILES | TIME (Homo sapiens) | IC50 [1] | IC50 [2] | microsomal CLint [3] | IC50 [4] | CLH [5] | Papp A→B at 10 µM [6] | fraction unbound ([7]; read-out: Fu) | logD [8] | solubility [9] | IC50 [10] | further results
1 | CCP(=O)(CC)c1ccccc1Nc1nc(Nc2cc(-c3cnn(C)c3)c(N3CCOCC3)cc2OC)ncc1Cl | 1.83 h | 139 nM | 0.2 nM | 71 µL/min/mg | 2.4 nM | 67 uL/min/10^6 cells | 78 ×10⁻⁶ cm/s | 0.041 | 4 | – | – | –
2 | COc1cc(N2CCC(N3CCN(C)CC3)CC2)c(-c2cn[nH]c2)cc1Nc1ncc(Cl)c(Nc2ccccc2P(C)(C)=O)n1 | 2.2 h | 498 nM | 0.3 nM | 28 µL/min/mg | – | – | – | 0.1 | 2.5 | > 1000 µM | 726 nM | –
3 | COc1cc(N2CCC(N(C)C)CC2)c(-c2cnn(C)c2)cc1Nc1ncc(Cl)c(Nc2ccccc2P(C)(C)=O)n1 | 1.08 h | – | 0.19 nM | 31 µL/min/mg | 1.7 nM | < 1 uL/min/10^6 cells | < 0.24 ×10⁻⁶ cm/s | 0.272 | 1.9 | > 1000 µM | 101 nM | pKa [11]: 9.4
4 | COc1cc(N2CCOCC2)c(-c2cn[nH]c2)cc1Nc1ncc(Cl)c(Nc2ccccc2P(C)(C)=O)n1 | 3.97 h | 1090 nM | – | 28 µL/min/mg | – | – | 18 ×10⁻⁶ cm/s | 0.009 | 3.4 | < 3 µM | 2140 nM | –
5 | C=CC(=O)Nc1cc(Nc2nccc(-c3cn(C)c4ccccc34)n2)c(OC)cc1N(C)CCN(C)C [OSIMERTINIB] | – | – | – | – | – | – | – | – | – | – | – | IC50 [12]: 44 nM
6 | COc1cc(N2CCN(C)CC2)c(-c2cnn(C)c2)cc1Nc1ncc(Cl)c(Nc2ccccc2P(C)(C)=O)n1 | 2.65 h | 241 nM | 0.23 nM | 24 µL/min/mg | 3.3 nM | < 1 uL/min/10^6 cells | 2.6 ×10⁻⁶ cm/s | 0.243 | 2.4 | > 1000 µM | 79 nM | pKa [11]: 7.6
7 | COc1cc(N2CCC(N3CCN(C)CC3)CC2)ccc1Nc1ncc(Cl)c(Nc2ccccc2P(C)(C)=O)n1 [BRIGATINIB] | 0.333 h | 459 nM | 7 nM | 3.1 µL/min/mg | – | – | 4.7 ×10⁻⁶ cm/s | – | 2.3 | > 1190 µM | 2030 nM | IC50 [13]: 357 nM; IC50 [14]: 2680 nM; IC50 [12]: 132 nM; fraction unbound [7]: 0.155
8 | COc1cc(N2CCC(N3CCN(C)CC3)CC2)c(-c2cnn(C)c2)cc1Nc1ncc(Cl)c(Nc2ccccc2P(C)(C)=O)n1 | 2.52 h | 91 nM | 0.32 nM | 21 µL/min/mg | 0.92 nM | < 1 uL/min/10^6 cells | < 0.62 ×10⁻⁶ cm/s | 0.228 | 2.7 | > 1000 µM | 140 nM | –
9 | COc1cc(N2CCC(N(C)C)CC2)c(-c2cn[nH]c2)cc1Nc1ncc(Cl)c(Nc2ccccc2P(C)(C)=O)n1 | 2.3 h | 2010 nM | 0.5 nM | 23 µL/min/mg | 0.9 nM | < 1 uL/min/10^6 cells | 0.24 ×10⁻⁶ cm/s | 0.19 | 1.8 | > 1000 µM | 373 nM | –
10 | COc1cc(N2CCOCC2)c(-c2cnn(C)c2)cc1Nc1ncc(Cl)c(Nc2ccccc2P(C)(C)=O)n1 | 1.37 h | 122 nM | 0.2 nM | 49 µL/min/mg | 4.4 nM | 16 uL/min/10^6 cells | 61 ×10⁻⁶ cm/s | 0.07 | 3 | 8.7 µM (≈ 4.94 µg/mL) | 1180 nM | IC50 [13]: 52 nM; Activity (PC-9 [15]): Active; IC50 [14]: 739 nM; IC50 [16]: 32 nM; Activity (PC-9 [17]): Active; Activity (PC-9 [18]): Active; inhibition in vivo at 50 mg/kg (PC-9 [19]): 52%; Activity [20]: Toxic; inhibition in vivo at 50 mg/kg (NCI-H1975): 87%; Activity (PC-9 [21]): Active
